Measurements as given in the supplement of paper PMC10307832.

Assays:
Assay in all cases: relative viability (nuclei count vs DMSO), 5 days (fraction); higher = more cells survive
GSK126 + Crizotinib = compound: CC[C@H](C)N1C=C(C2=C(C=C(C=C21)C3=CN=C(C=C3)N4CCNCC4)C(=O)NCC5=C(C=C(NC5=O)C)C)C [GSK126] + C[C@@H](Oc1cc(-c2cnn(C3CCNCC3)c2)cnc1N)c1c(Cl)ccc(F)c1Cl [Crizotinib] (partner 1 µM)
In short: (§1)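 Relative viability was taken as the ratio of nuclei in treated wells to nuclei in vehicle wells. Lung cancer cell lines in 1536-well plates received compounds by pin tool one day after seeding, either one drug alone or a fixed anchor-drug dose plus five library-drug doses (not always all listed) in √10 steps. Nuclei were counted on 4× images after 5 days of treatment, and values are medians of duplicate plates.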

GSK126 + Dasatinib = compound: CC[C@H](C)N1C=C(C2=C(C=C(C=C21)C3=CN=C(C=C3)N4CCNCC4)C(=O)NCC5=C(C=C(NC5=O)C)C)C [GSK126] + Cc1nc(Nc2ncc(C(=O)Nc3c(C)cccc3Cl)s2)cc(N2CCN(CCO)CC2)n1 [Dasatinib] (partner 0.075 µM)
In short: as §1

GSK126 + Bortezomib = compound: CC[C@H](C)N1C=C(C2=C(C=C(C=C21)C3=CN=C(C=C3)N4CCNCC4)C(=O)NCC5=C(C=C(NC5=O)C)C)C [GSK126] + CC(C)C[C@H](NC(=O)[C@H](Cc1ccccc1)NC(=O)c1cnccn1)B(O)O [Bortezomib] (partner 0.002 µM)
In short: as §1

Carboplatin + Bortezomib = compound: C1CC(C1)(C(=O)O)C(=O)O.[NH2-].[NH2-].[Pt+2] [Carboplatin] + CC(C)C[C@H](NC(=O)[C@H](Cc1ccccc1)NC(=O)c1cnccn1)B(O)O [Bortezomib] (partner 0.002 µM)
In short: as §1

NCI-H1944 showed a relative viability (GSK126 + Crizotinib; first compound 0.08 µM) of 1.3, a relative viability (GSK126 + Crizotinib; first compound 0.253 µM) of 1.08 and a relative viability (GSK126 + Crizotinib; first compound 0.8 µM) of 1.1. It also gave a relative viability (GSK126 + Crizotinib; first compound 2.53 µM) of 1.05, a relative viability (GSK126 + Crizotinib; first compound 8 µM) of 1.23 and a relative viability (GSK126 + Dasatinib; first compound 0.08 µM) of 0.236. It also gave a relative viability (GSK126 + Dasatinib; first compound 0.253 µM) of 0.213, a relative viability (GSK126 + Dasatinib; first compound 0.8 µM) of 0.229 and a relative viability (GSK126 + Dasatinib; first compound 2.53 µM) of 0.24. The relative viability (GSK126 + Dasatinib; first compound 8 µM) was 0.297.
SK-LU-1 gave a relative viability (GSK126 + Crizotinib; first compound 0.08 µM) of 1.01, a relative viability (GSK126 + Crizotinib; first compound 0.253 µM) of 0.935 and a relative viability (GSK126 + Crizotinib; first compound 0.8 µM) of 0.949. For the same cell line, the relative viability (GSK126 + Crizotinib; first compound 2.53 µM) was 1.13, the relative viability (GSK126 + Crizotinib; first compound 8 µM) was 1.06 and the relative viability (GSK126 + Dasatinib; first compound 0.08 µM) was 0.213. It also gave a relative viability (GSK126 + Dasatinib; first compound 0.253 µM) of 0.231, a relative viability (GSK126 + Dasatinib; first compound 0.8 µM) of 0.189 and a relative viability (GSK126 + Dasatinib; first compound 2.53 µM) of 0.199. For the same cell line, the relative viability (GSK126 + Dasatinib; first compound 8 µM) was 0.173, the relative viability (GSK126 + Bortezomib; first compound 0.08 µM) was 1.19 and the relative viability (GSK126 + Bortezomib; first compound 0.253 µM) was 0.95. The relative viability (GSK126 + Bortezomib; first compound 0.8 µM) was 1.19, the relative viability (GSK126 + Bortezomib; first compound 2.53 µM) was 1.38 and the relative viability (GSK126 + Bortezomib; first compound 8 µM) was 1.05. For the same cell line, the relative viability (Carboplatin + Bortezomib; first compound 0.08 µM) was 1.79, the relative viability (Carboplatin + Bortezomib; first compound 0.253 µM) was 1.26 and the relative viability (Carboplatin + Bortezomib; first compound 0.8 µM) was 1.44. The relative viability (Carboplatin + Bortezomib; first compound 2.53 µM) was 1.21 and the relative viability (Carboplatin + Bortezomib; first compound 8 µM) was 0.582.
NCI-H1915 showed a relative viability (GSK126 + Crizotinib; first compound 0.08 µM) of 1.02, a relative viability (GSK126 + Crizotinib; first compound 0.253 µM) of 0.93 and a relative viability (GSK126 + Crizotinib; first compound 0.8 µM) of 0.917. The relative viability (GSK126 + Crizotinib; first compound 2.53 µM) was 0.878, the relative viability (GSK126 + Crizotinib; first compound 8 µM) was 0.912 and the relative viability (GSK126 + Dasatinib; first compound 0.08 µM) was 0.3. The relative viability (GSK126 + Dasatinib; first compound 0.253 µM) was 0.3, the relative viability (GSK126 + Dasatinib; first compound 0.8 µM) was 0.34 and the relative viability (GSK126 + Dasatinib; first compound 2.53 µM) was 0.347. For the same cell line, the relative viability (GSK126 + Dasatinib; first compound 8 µM) was 0.328, the relative viability (GSK126 + Bortezomib; first compound 0.08 µM) was 1.02 and the relative viability (GSK126 + Bortezomib; first compound 0.253 µM) was 0.964. For the same cell line, the relative viability (GSK126 + Bortezomib; first compound 0.8 µM) was 0.991, the relative viability (GSK126 + Bortezomib; first compound 2.53 µM) was 0.979 and the relative viability (GSK126 + Bortezomib; first compound 8 µM) was 0.998. The relative viability (Carboplatin + Bortezomib; first compound 0.08 µM) was 0.984, the relative viability (Carboplatin + Bortezomib; first compound 0.253 µM) was 1.01 and the relative viability (Carboplatin + Bortezomib; first compound 0.8 µM) was 0.954. For the same cell line, the relative viability (Carboplatin + Bortezomib; first compound 2.53 µM) was 0.845 and the relative viability (Carboplatin + Bortezomib; first compound 8 µM) was 0.487.
Work on NCI-H650 yielded a relative viability (GSK126 + Crizotinib; first compound 0.08 µM) of 0.912, a relative viability (GSK126 + Crizotinib; first compound 0.253 µM) of 0.741 and a relative viability (GSK126 + Crizotinib; first compound 0.8 µM) of 0.658. The relative viability (GSK126 + Crizotinib; first compound 2.53 µM) was 0.755, the relative viability (GSK126 + Crizotinib; first compound 8 µM) was 0.594 and the relative viability (GSK126 + Dasatinib; first compound 0.08 µM) was 0.468. The relative viability (GSK126 + Dasatinib; first compound 0.253 µM) was 0.493, the relative viability (GSK126 + Dasatinib; first compound 0.8 µM) was 0.432 and the relative viability (GSK126 + Dasatinib; first compound 2.53 µM) was 0.39. The relative viability (GSK126 + Dasatinib; first compound 8 µM) was 0.455, the relative viability (GSK126 + Bortezomib; first compound 0.08 µM) was 0.812 and the relative viability (GSK126 + Bortezomib; first compound 0.253 µM) was 0.814. It also gave a relative viability (GSK126 + Bortezomib; first compound 0.8 µM) of 0.762, a relative viability (GSK126 + Bortezomib; first compound 2.53 µM) of 0.804 and a relative viability (GSK126 + Bortezomib; first compound 8 µM) of 0.727. It also gave a relative viability (Carboplatin + Bortezomib; first compound 0.08 µM) of 0.966, a relative viability (Carboplatin + Bortezomib; first compound 0.253 µM) of 0.852 and a relative viability (Carboplatin + Bortezomib; first compound 0.8 µM) of 0.868. For the same cell line, the relative viability (Carboplatin + Bortezomib; first compound 2.53 µM) was 0.764 and the relative viability (Carboplatin + Bortezomib; first compound 8 µM) was 0.388.
With SW 1573 the relative viability (GSK126 + Crizotinib; first compound 0.08 µM) was 0.868, the relative viability (GSK126 + Crizotinib; first compound 0.253 µM) was 0.82 and the relative viability (GSK126 + Crizotinib; first compound 0.8 µM) was 0.751. It also gave a relative viability (GSK126 + Crizotinib; first compound 2.53 µM) of 0.84, a relative viability (GSK126 + Crizotinib; first compound 8 µM) of 0.785 and a relative viability (GSK126 + Dasatinib; first compound 0.08 µM) of 0.709. For the same cell line, the relative viability (GSK126 + Dasatinib; first compound 0.253 µM) was 0.659, the relative viability (GSK126 + Dasatinib; first compound 0.8 µM) was 0.515 and the relative viability (GSK126 + Dasatinib; first compound 2.53 µM) was 0.479. It also gave a relative viability (GSK126 + Dasatinib; first compound 8 µM) of 0.524, a relative viability (GSK126 + Bortezomib; first compound 0.08 µM) of 1.06 and a relative viability (GSK126 + Bortezomib; first compound 0.253 µM) of 1.1. It also gave a relative viability (GSK126 + Bortezomib; first compound 0.8 µM) of 0.989, a relative viability (GSK126 + Bortezomib; first compound 2.53 µM) of 1.01 and a relative viability (GSK126 + Bortezomib; first compound 8 µM) of 1.26. The relative viability (Carboplatin + Bortezomib; first compound 0.08 µM) was 1.09, the relative viability (Carboplatin + Bortezomib; first compound 0.253 µM) was 1 and the relative viability (Carboplatin + Bortezomib; first compound 0.8 µM) was 1.12. The relative viability (Carboplatin + Bortezomib; first compound 2.53 µM) was 1.05 and the relative viability (Carboplatin + Bortezomib; first compound 8 µM) was 0.808.
NCI-H460 showed a relative viability (GSK126 + Crizotinib; first compound 0.08 µM) of 1.13, a relative viability (GSK126 + Crizotinib; first compound 0.253 µM) of 0.929 and a relative viability (GSK126 + Crizotinib; first compound 0.8 µM) of 0.811. For the same cell line, the relative viability (GSK126 + Crizotinib; first compound 2.53 µM) was 0.9, the relative viability (GSK126 + Crizotinib; first compound 8 µM) was 0.875 and the relative viability (GSK126 + Dasatinib; first compound 0.08 µM) was 0.562. For the same cell line, the relative viability (GSK126 + Dasatinib; first compound 0.253 µM) was 0.483, the relative viability (GSK126 + Dasatinib; first compound 0.8 µM) was 0.455 and the relative viability (GSK126 + Dasatinib; first compound 2.53 µM) was 0.421. For the same cell line, the relative viability (GSK126 + Dasatinib; first compound 8 µM) was 0.569, the relative viability (GSK126 + Bortezomib; first compound 0.08 µM) was 1.34 and the relative viability (GSK126 + Bortezomib; first compound 0.253 µM) was 1.1. For the same cell line, the relative viability (GSK126 + Bortezomib; first compound 0.8 µM) was 1.06, the relative viability (GSK126 + Bortezomib; first compound 2.53 µM) was 1.09 and the relative viability (GSK126 + Bortezomib; first compound 8 µM) was 1.18. The relative viability (Carboplatin + Bortezomib; first compound 0.08 µM) was 1.22, the relative viability (Carboplatin + Bortezomib; first compound 0.253 µM) was 1.06 and the relative viability (Carboplatin + Bortezomib; first compound 0.8 µM) was 0.895. For the same cell line, the relative viability (Carboplatin + Bortezomib; first compound 2.53 µM) was 0.812 and the relative viability (Carboplatin + Bortezomib; first compound 8 µM) was 0.174.
COR-L23 showed a relative viability (GSK126 + Crizotinib; first compound 0.08 µM) of 0.663, a relative viability (GSK126 + Crizotinib; first compound 0.253 µM) of 0.559 and a relative viability (GSK126 + Crizotinib; first compound 0.8 µM) of 0.659. The relative viability (GSK126 + Crizotinib; first compound 2.53 µM) was 0.611, the relative viability (GSK126 + Crizotinib; first compound 8 µM) was 0.713 and the relative viability (GSK126 + Dasatinib; first compound 0.08 µM) was 0.594. The relative viability (GSK126 + Dasatinib; first compound 0.253 µM) was 0.488, the relative viability (GSK126 + Dasatinib; first compound 0.8 µM) was 0.488 and the relative viability (GSK126 + Dasatinib; first compound 2.53 µM) was 0.392. It also gave a relative viability (GSK126 + Dasatinib; first compound 8 µM) of 0.415, a relative viability (GSK126 + Bortezomib; first compound 0.08 µM) of 1.08 and a relative viability (GSK126 + Bortezomib; first compound 0.253 µM) of 0.979. The relative viability (GSK126 + Bortezomib; first compound 0.8 µM) was 0.942, the relative viability (GSK126 + Bortezomib; first compound 2.53 µM) was 1.01 and the relative viability (GSK126 + Bortezomib; first compound 8 µM) was 0.992. It also gave a relative viability (Carboplatin + Bortezomib; first compound 0.08 µM) of 0.887, a relative viability (Carboplatin + Bortezomib; first compound 0.253 µM) of 0.987 and a relative viability (Carboplatin + Bortezomib; first compound 0.8 µM) of 0.918. For the same cell line, the relative viability (Carboplatin + Bortezomib; first compound 2.53 µM) was 0.707 and the relative viability (Carboplatin + Bortezomib; first compound 8 µM) was 0.355.
NCI-H2009 was tested, and the relative viability (GSK126 + Crizotinib; first compound 0.08 µM) was 1.08, the relative viability (GSK126 + Crizotinib; first compound 0.253 µM) was 0.982 and the relative viability (GSK126 + Crizotinib; first compound 0.8 µM) was 1.06. For the same cell line, the relative viability (GSK126 + Crizotinib; first compound 2.53 µM) was 0.968, the relative viability (GSK126 + Crizotinib; first compound 8 µM) was 1.06 and the relative viability (GSK126 + Dasatinib; first compound 0.08 µM) was 0.331. The relative viability (GSK126 + Dasatinib; first compound 0.253 µM) was 0.261, the relative viability (GSK126 + Dasatinib; first compound 0.8 µM) was 0.306 and the relative viability (GSK126 + Dasatinib; first compound 2.53 µM) was 0.231. For the same cell line, the relative viability (GSK126 + Dasatinib; first compound 8 µM) was 0.296, the relative viability (GSK126 + Bortezomib; first compound 0.08 µM) was 1.3 and the relative viability (GSK126 + Bortezomib; first compound 0.253 µM) was 0.951. The relative viability (GSK126 + Bortezomib; first compound 0.8 µM) was 0.992, the relative viability (GSK126 + Bortezomib; first compound 2.53 µM) was 1.16 and the relative viability (GSK126 + Bortezomib; first compound 8 µM) was 1.09. It also gave a relative viability (Carboplatin + Bortezomib; first compound 0.08 µM) of 1.12, a relative viability (Carboplatin + Bortezomib; first compound 0.253 µM) of 0.938 and a relative viability (Carboplatin + Bortezomib; first compound 0.8 µM) of 0.945. It also gave a relative viability (Carboplatin + Bortezomib; first compound 2.53 µM) of 0.918 and a relative viability (Carboplatin + Bortezomib; first compound 8 µM) of 0.671.
